# Measurements from paper PMC12022903, “Evaluation of drug-drug interaction between Suraxavir Marboxil (GP681) and itraconazole, and assessment of the impact of gene polymorphism” (Frontiers in Pharmacology, 2025).
# Where “and” joins values, the source holds several entries; their conditions need not be identical. Identical values can stand only once.
# Assays:
# plasma protein = tested on: plasma protein; design: method as in unpublished data; conditions: preclinical studies; ref unpublished data; cited from earlier work
# [1] = Pharmacokinetic parameters of GP1707D07 (HPLC-MS/MS, non-compartmental) in the GP681-itraconazole drug-drug interaction study; type: in vivo, healthy Chinese subjects
# Description: This single-center, open-label, self-controlled, fixed-sequence study, sponsored by Qingfeng Pharmaceutical Group Co., Ltd., was conducted at a single clinical research site in the China–Japan Friendship Hospital (Beijing, China). Each subject received the following treatment: Suraxavir Marboxil (GP681) 20 mg in the fasted state on day 1 and day 26. Itraconazole capsules (Sporanox®: Xi’an Yangsen Pharmaceutical Co., Ltd., China) 0.2 g twice daily (BID, bis in die) on day 22. Itraconazole 0.2 g daily from day 23 to day 36 [including day 26, when itraconazole was co-administrated with Suraxavir Marboxil (GP681)]. The washout period is 21 days (Figure 2). It should be noted that in the following sections, when discussing the PK profile, this study was divided into Period 1 (Suraxavir Marboxil (GP681) monotherapy, from day −1 to day 12), and Period 2 (Suraxavir Marboxil (GP681)-itraconazole co-administration, from day 21 to day 36). When discussion the safety profile, this study was divided into Stage 1 (Suraxavir Marboxil (GP681) monotherapy stage, from day 1 to day 21), Stage 2 (itraconazole monotherapy stage, from day 22 to day 25), and Stage 3 (Suraxavir Marboxil (GP681)-itraconazole co-administration stage, from d 26 to d 36).
# Blood samples were collected at the following time points: pre–dose, 0.5, 1, 2, 3, 4, 5, 6, 8, 12, 24, 36, 48, 72, 120, 168, and 264 h post-dose on day 1 and day 26. In addition, a blood sample were collected before dosing on day 1 for genetic polymorphism assessment.
# A validated high-performance liquid chromatography-tandem mass spectrometry (HPLC-MS/MS) method was used to determine plasma concentrations of Suraxavir Marboxil (GP681) and its active metabolite GP1707D07 at different times, with the quantification range of 0.3/0.3–300/300 ng/mL for Suraxavir Marboxil (GP681) and GP1707D07. The lower limit of quantification (LLOQ) for both compounds was 0.300 ng/mL. Phoenix® WinNonlin® 8.3 was used to estimate and analyze the pharmacokinetic parameters of non-compartmental model from plasma concentration data. Pharmacokinetic parameters included: maximum plasma concentration (Cmax), area under the plasma concentration-time curve extrapolated from time zero to infinity (AUC0- ∞ ), time to Cmax (Tmax), half-life (t1/2), λz, AUC_%Extrap, Vz/F, CL/F, and mean residence time (MRT).
# Statistical analysis was performed using SAS (version 9.4 or above) software programming. Pharmacokinetic concentration analysis was based on Pharmacokinetic Analysis Concentration Set (PKCS). Individual and mean concentrations (mean ± SD) were plotted against planned blood sampling time points for the analyte on linear and semi-log scales. Pharmacokinetic parameter analysis was based on Pharmacokinetic Analysis Parameter Set (PKPS). Drug interaction analysis was based on Drug Interaction Set (DIS). The geometric mean ratios and their 90% confidence intervals of pharmacokinetic parameters Cmax, AUC0-t, and AUC0- ∞ under Suraxavir Marboxil (GP681) single dose and Suraxavir Marboxil (GP681)-itraconazole co-administration conditions were calculated after natural logarithm transformation, using a linear mixed effects model with subjects as random effects and treatment (combined/single) as fixed effects.
# 1.3 Pharmacokinetic Sample Collection and Processing: Pharmacokinetic Analysis: Approximately 4 mL of blood is collected each time into a tube containing sodium fluoride/potassium oxalate as an anticoagulant. The tube is then placed upright in an ice-water bath. The plasma samples are separated by centrifugation for the detection of GP681/GP1707D07 blood drug concentrations. Both sample collection and processing are conducted under white light conditions. […]
# [2] = GP681 + itraconazole vs GP681 alone, N=12
# [3] = Period 1, GP681 20 mg monotherapy, geometric mean, N=12
# [4] = Period 1, GP681 20 mg monotherapy, individual subjects
# [5] = Period 1, GP681 20 mg monotherapy, mean, N=12
# [6] = Period 1, GP681 20 mg monotherapy, median, N=12
# [7] = Period 2, GP681 20 mg + itraconazole, geometric mean, N=12
smiles,measurement,setting,value
O=C1c2c(O)c(=O)ccn2N([C@@H]2c3ccccc3SCc3c2ccc(F)c3F)[C@@H]2COC3(CC3)CN12 [GP1707D07],plasma protein binding rate,plasma protein,high plasma protein binding rate
same,AUC0-t: point estimate of geometric mean ratio (90% CI) Period 2/Period 1,[1]; [2],"215.2% and 215.2 (170.7, 271.3) %"
same,AUC0-∞: point estimate of geometric mean ratio (90% CI) Period 2/Period 1,[1]; [2],"255.4% and 255.4 (204.5, 319.0) %"
same,Cmax: point estimate of geometric mean ratio (90% CI) Period 2/Period 1,[1]; [2],"137.7% and 137.7 (98.5, 192.3) %"
same,AUC0-t,[1]; [3],955.800 ng·h/mL
same,AUC_%Extrap,[1]; [3],7.117%
same,CL/F,[1]; [3],19.255 L/h
same,Cmax,[1]; [3],16.0 ng/mL and 16.0070 ng/mL
same,MRT0-t,[1]; [3],66.790 h
same,MRT0-∞,[1]; [3],87.2 h and 87.218 h
same,Tmax,[1]; [3],3.7 h
same,Vz/F,[1]; [3],1799.125 L
same,t1/2,[1]; [3],64.8 h and 64.764 h
same,λz,[1]; [3],0.0107 h⁻¹
same,AUC0-t,[1]; [4],1770.18 ng·h/mL and 1069.77 ng·h/mL and 1199.27 ng·h/mL and 602.25 ng·h/mL and 1158.79 ng·h/mL and 728.18 ng·h/mL and 1487.97 ng·h/mL and 759.35 ng·h/mL and 1247.30 ng·h/mL and 1364.54 ng·h/mL and 354.04 ng·h/mL and 739.81 ng·h/mL and 1069.8 ng·h/mL and 1199.3 ng·h/mL and 602.3 ng·h/mL and 1158.8 ng·h/mL and 728.2 ng·h/mL and 1488.0 ng·h/mL and 759.4 ng·h/mL and 1364.5 ng·h/mL and 354.0 ng·h/mL and 739.8 ng·h/mL and 1770.2 ng·h/mL
same,AUC0-∞,[1]; [4],1874.52 ng·h/mL and 1171.14 ng·h/mL and 1273.75 ng·h/mL and 689.41 ng·h/mL and 1290.37 ng·h/mL and 801.51 ng·h/mL and 1650.91 ng·h/mL and 781.02 ng·h/mL and 1310.49 ng·h/mL and 1409.63 ng·h/mL and 407.77 ng·h/mL and 814.16 ng·h/mL
same,AUC_%Extrap,[1]; [4],5.57% and 8.66% and 5.85% and 12.64% and 10.20% and 9.15% and 9.87% and 2.78% and 4.82% and 3.20% and 13.18% and 9.13%
same,CL/F,[1]; [4],10.67 L/h and 17.08 L/h and 15.70 L/h and 29.01 L/h and 15.50 L/h and 24.95 L/h and 12.11 L/h and 25.61 L/h and 15.26 L/h and 14.19 L/h and 49.05 L/h and 24.57 L/h
same,Cmax,[1]; [4],44.439 ng/mL and 17.988 ng/mL and 26.933 ng/mL and 7.24 ng/mL and 15.539 ng/mL and 12.018 ng/mL and 25.999 ng/mL and 16.03 ng/mL and 20.468 ng/mL and 30.14 ng/mL and 3.382 ng/mL and 11.179 ng/mL and 18.0 ng/mL and 26.9 ng/mL and 7.2 ng/mL and 15.5 ng/mL and 12.0 ng/mL and 26.0 ng/mL and 16.0 ng/mL and 20.5 ng/mL and 30.1 ng/mL and 3.4 ng/mL and 11.2 ng/mL and 44.4 ng/mL
same,MRT0-t,[1]; [4],61.44 h and 71.79 h and 62.61 h and 74.73 h and 74.78 h and 69.62 h and 63.68 h and 57.28 h and 63.69 h and 56.39 h and 80.89 h and 69.22 h
same,MRT0-∞,[1]; [4],75.90 h and 95.15 h and 78.26 h and 108.96 h and 102.37 h and 94.31 h and 93.23 h and 64.34 h and 75.97 h and 64.54 h and 117.49 h and 94.32 h
same,Tmax,[1]; [4],3 h and 6 h and 2 h and 5 h and 4 h
same,Vz/F,[1]; [4],857.04 L and 1725.92 L and 1402.22 L and 3031.63 L and 1619.87 L and 2462.69 L and 1483.10 L and 1801.98 L and 1183.17 L and 996.59 L and 5767.31 L and 2522.77 L
same,t1/2,[1]; [4],55.68 h and 70.05 h and 61.90 h and 72.43 h and 72.44 h and 68.41 h and 84.86 h and 48.78 h and 53.74 h and 48.69 h and 81.51 h and 71.18 h
same,λz,[1]; [4],0.012 h⁻¹ and 0.010 h⁻¹ and 0.011 h⁻¹ and 0.008 h⁻¹ and 0.014 h⁻¹ and 0.013 h⁻¹ and 0.009 h⁻¹
same,AUC_%Extrap,[1]; [5],7.9 (3.4) % and 7.919%
same,CL/F,[1]; [5],21.1 (10.6) L/h and 21.141 L/h
same,Cmax,[1]; [5],19.3 (11.2) ng/mL and 19.2796 ng/mL
same,MRT0-t,[1]; [5],67.2 (7.5) h and 67.176 h
same,MRT0-∞,[1]; [5],88.7 (17.0) h and 88.737 h
same,Tmax,[1]; [5],4.0 h
same,Vz/F,[1]; [5],"2071.2 (1,333.0) L and 2071.190 L"
same,t1/2,[1]; [5],65.8 (12.1) h and 65.805 h
same,λz,[1]; [5],0.011 (0.0021) h-1 and 0.0109 h-1
same,Tmax,"[1]; Period 1, GP681 20 mg monotherapy, median (range), N=12",4.0 (2.0–6.0) h
same,AUC0-t,[1]; [6],1114.281 ng·h/mL
same,AUC0-∞,[1]; [6],1222.445 ng·h/mL
same,AUC_%Extrap,[1]; [6],8.894%
same,CL/F,[1]; [6],16.390 L/h
same,Cmax,[1]; [6],17.0090 ng/mL
same,MRT0-t,[1]; [6],66.454 h
same,MRT0-∞,[1]; [6],93.771 h
same,Vz/F,[1]; [6],1672.897 L
same,t1/2,[1]; [6],69.231 h
same,λz,[1]; [6],0.0100 h⁻¹
same,AUC0-t,[1]; [7],2057.0 ng·h/mL and 2057.031 ng·h/mL
same,AUC_%Extrap,[1]; [7],21.847%
same,CL/F,[1]; [7],7.539 L/h
